# Laboratory results: paper PMC9317696, “New Benzil and Isoflavone Derivatives with Cytotoxic and NO Production Inhibitory Activities from Placolobium vietnamense” (Molecules, 2022)
# Where two headings read alike, the source gives them in different places.
# Columns and labels:
# Assay type in all cases: cell-based
# [1] = test system: NO production in macrophage RAW 264.7 cells; assay: Inhibition of LPS-induced NO production in RAW 264.7 macrophages (Griess); details: Mus musculus
# Protocol: (§1) RAW 264.7 cells were stocked in Dulbecco’s Modified Essential and grown at the condition of 37 °C in DMEM supplemented with 10% heat-inactivated FBS, streptomycin sulfate (100 µg/mL), and penicillin (100 units/mL) in a humidified environment of 5% CO2. The RAW 264.7 cells were pre-incubated every two days.
# The RAW 264.7 cells were stimulated with or without 1 μg/mL of LPS (lipopolysaccharide), which was purchased from Sigma Chemical Co. (St. Louis, MO, USA), for 24 h with or without 0.5% DMSO, celastrol, and isolated compounds at the indicated concentrations. The culture supernatant (100 μL) was then reacted with 100 μL of Griess reagent. After the Griess assay, the remaining cells were used to screen for their viability using colorimetric assay-MTT (Sigma Chemical Co., St. Louis, MO, USA).
# [2] = Cell viability assay (MTT) on RAW 264.7 cells; details: mouse, read-out: cytotoxicity toward RAW 264.7 cells IC50
# Protocol: as §1
# The cell viability assay was used to determine the cytotoxic effect of the isolated compounds on RAW 264.7 cells. At a density of 1 × 10^5 cells per well, RAW 264.7 cells were seeded on a 96-well plate and allowed to adhere for 4 h. Then, the cells were treated with 0.5% DMSO, celastrol, and isolated compounds at the indicated concentrations. Celastrol was used as a positive control. After incubating 24 h, the viable cells were measured with a colorimetric assay based on the mitochondria’s ability in viable cells to reduce MTT [18]. The viability cells were treated with vehicle only and were defined as 100% viable. [OD570 (treated cell culture) × 100]/OD570 was the formula used to determine the percentage of macrophage surviving cells after treatment (vehicle control).
# Hep G2 cells = assay: Cytotoxicity assay (MTT) against Hep G2 cell line; details: Homo sapiens
# Protocol: According to a previous procedure, the cytotoxic evaluation of 1–8 against the growth of human hepatocellular carcinoma (Hep G2) cell line was carried out. The positive control was ellipticine, a powerful anticancer medication with various modes of action. The cancer cells were grown in Dulbecco’s Modified Essential Medium (DMEM) at 37 °C in a 5 % CO2 environment with 10% fetal bovine serum (FBS), 1% penicillin and streptomycin, and 1% L-glutamine. The investigated compounds were added at concentrations ranging from 0.5 to 128 µg/mL by dissolving in DMSO (20 mg/mL), and the incubation was carried out once more for 72 h under the same conditions. Following the procedure, an MTT solution (10 µL, 5 mg/mL) was added to each well. The percentage of cell viability vs. sample concentration was plotted using SigmaPlot 10 (Systat Software Inc., San Jose, CA, USA) to calculate the IC50 values.
# [3] = RAW264.7, RAW 264.7 cells, 1 μg/mL LPS, 24 h, Griess reagent, mean of three experiments ± SD, read-out: NO Production (IC50)
# [4] = HepG2, 72 h, read-out: Cytotoxicity (IC50, µM)
Structure (SMILES),"IC50 ([1]; RAW264.7, 24 h, read-out: NO Production (IC50, µM)) [µM]","IC50 [1, 3] [µM]",IC50 at 24 h [2] [µM],IC50 (Hep G2 cells; [4]) [µM],"IC50 (Hep G2 cells; HepG2, Hep G2 cells, 72 h, MTT, mean of three experiments ± SD, read-out: Cytotoxicity (IC50)) [µM]"
"CC1=C(O)C(=O)C=C2C1=CC=C1[C@@]2(C)CC[C@@]2(C)[C@@H]3C[C@](C)(C(=O)O)CC[C@]3(C)CC[C@]12C [Celastrol, celastrol, reference compound]",1 ± 0.1,,,,
"COc1ccc(-c2coc3c4c(c(OC)cc3c2=O)OC(C)(C)CC4)cc1 [Compound 1, placovinone A]",,13.7 ± 0.5,79.2,8 ± 0.2,
"COc1cc(OC)c(C(=O)C(=O)c2cc(OC)c3c(c2O)C=CC(C)(C)O3)cc1OC [Compound 2, placovinone B]",,31 ± 0.3,,19.8 ± 1.5,
"COc1cc(OC)c(OC)cc1CC(=O)c1cc(OC)c2c(c1O)C=CC(C)(C)O2 [Compound 3, placovinone C]",,47.4 ± 0.3,,22.9 ± 0.5,
"COc1ccc(CC(=O)c2cc(OC)c3c(c2O)C=CC(C)(C)O3)cc1 [Compound 4, placovinone D]",,15.5 ± 0.4,42.6,23.4 ± 0.5,
"COc1cc2c(cc1-c1coc3c4c(c(OC)cc3c1=O)OC(C)(C)C=C4)OCO2 [Compound 5, ichthynone]",,> 100,,99.1 ± 0.9,
"COc1cc2c(=O)c(-c3ccc4c(c3)OCO4)coc2c2c1OC(C)(C)C=C2 [Compound 6, durmillone]",,> 100,,71.6 ± 0.6,
"CC1(C)C=Cc2c(ccc3c(=O)c(-c4ccc5c(c4)OCO5)coc23)O1 [Compound 7, calopogoniumisoflavone B]",,> 100,,66.6 ± 0.5,
"COc1ccc(-c2coc3c4c(ccc3c2=O)OC(C)(C)C=C4)cc1OC [Compound 8, 4′,5′-dimethoxy-6,6-dimethylpyranoisoflavone]",,54.7 ± 0.2,,35.6 ± 0.3,
"Cc1c2ccncc2c(C)c2c1[nH]c1ccccc12 [Ellipticine, ellipticine, reference compound]",,,,,0.43 ± 0.03
